Data taken from ChEMBL document CHEMBL1821624, “Synthesis, evaluation against Leishmania amazonensis and cytotoxicity assays in macrophages of sixteen new congeners Morita-Baylis-Hillman adducts” (Eur J Med Chem, 2011).

Tests used:
Leishmania amazonensis [1] = test: Antileishmanial activity against Leishmania amazonensis IFLA/BR/67/PH8 promastigotes […] assessed as inhibition of parasite growth after 72 hrs by MTT assay; assay type: functional, organism-based; settings: IFLA/BR/67/PH8, 72 h
[2] = Cytotoxicity against Swiss mouse peritoneal macrophages after 24 hrs by MTT assay; assay type: cell-based, Peritoneal macrophage cell
[3] = Selectivity index, ratio of CC50 for Swiss mouse peritoneal macrophages to IC50 for Leishmania amazonensis IFLA/BR/67/PH8 promastigotes; assay type: functional
Leishmania amazonensis [4] = test: Antileishmanial activity against Leishmania amazonensis; assay type: functional, organism-based

Row | IC50 (Leishmania amazonensis [4]) | Structure (SMILES) | IC50 (Leishmania amazonensis [1]) | CC50 at 24 h [2] | Ratio CC50/IC50 [3]
1 | – | C=C(C(=O)OCCC)C(O)c1ccc([N+](=O)[O-])cc1 (racemic) | 52 µM | 122 µM | 2.33
2 | – | C=C(C(=O)OCCC)C(O)c1ccc(Br)cc1 (racemic) | 74.7 µM | 125 µM | 1.67
3 | – | C=C(C(=O)OCCO)C(O)c1ccccn1 (racemic) | 266 µM | 749 µM | 2.81
4 | – | C=C(C(=O)OCCO)C(O)c1ccccc1[N+](=O)[O-] (racemic) | 20.5 µM | 112 µM | 5.43
5 | – | C=C(C(=O)OCCO)C(O)c1cccc([N+](=O)[O-])c1 (racemic) | 64.6 µM | 69 µM | 1.06
6 | – | C=C(C(=O)OCCO)C(O)c1ccncc1 (racemic) | 382 µM | 458 µM | 1.2
7 | – | C=C(C(=O)OCCO)C(O)c1ccc(Br)cc1 (racemic) | 56.7 µM | 157 µM | 2.77
8 | – | C=C(C(=O)OCCC)C(O)c1cccnc1 (racemic) | 211 µM | 384 µM | 1.81
9 | – | C=C(C(=O)OCCC)C(O)c1ccncc1 (racemic) | 149 µM | 272 µM | 1.83
10 | 62 µM | C=C(C(=O)OC)C(O)c1ccccc1[N+](=O)[O-] (centres undefined) | – | – | –
11 | – | C=C(C(=O)OCCC)C(O)c1ccccn1 (racemic) | 194 µM | 715 µM | 3.68
12 | – | C=C(C(=O)OCCO)C(O)c1cccnc1 (racemic) | 324 µM | 418 µM | 1.29
13 | – | C=C(C(=O)OCCO)C(O)c1ccc2ccccc2c1 (racemic) | 52.5 µM | 118 µM | 2.24
14 | – | C=C(C(=O)OCCC)C(O)c1ccc2ccccc2c1 (racemic) | 54.5 µM | 149 µM | 2.59
15 | – | C=C(C(=O)OCCO)C(O)c1ccc([N+](=O)[O-])cc1 (racemic) | 53 µM | 46.9 µM | 0.88
16 | – | C=C(C(=O)OCCC)C(O)c1ccccc1[N+](=O)[O-] (racemic) | 28.4 µM | 135 µM | 4.75
17 | – | C=C(C(=O)OCCC)C(O)c1cccc([N+](=O)[O-])c1 (racemic) | 72.2 µM | 114 µM | 1.57
